Assay results: publication doi:10.1101/2024.02.03.578754v1 (biorxiv, 2024)

Target: T1, OASS (O-acetylserine sulfhydrylase) (Arabidopsis thaliana, UniProt P47998)
Assay: biochemical
Settings: not given

T1 sequence (P47998 whole entry): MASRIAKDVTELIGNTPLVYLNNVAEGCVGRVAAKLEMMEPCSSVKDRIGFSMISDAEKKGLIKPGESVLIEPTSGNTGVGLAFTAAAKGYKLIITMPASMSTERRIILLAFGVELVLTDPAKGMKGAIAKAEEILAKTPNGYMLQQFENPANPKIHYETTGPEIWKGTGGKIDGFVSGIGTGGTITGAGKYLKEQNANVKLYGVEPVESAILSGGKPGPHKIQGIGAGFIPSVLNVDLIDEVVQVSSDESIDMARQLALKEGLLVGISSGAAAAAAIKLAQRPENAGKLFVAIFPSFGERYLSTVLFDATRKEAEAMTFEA

SMILES	IC50 [µM]
O=C(Nc1cccc(NC(=O)c2ccccc2-c2ccccc2C(=O)O)c1)c1nccs1 [compound 11, 11]	10.1
COc1ccc(-c2nc(NC(=O)c3ccccc3-c3ccccc3C(=O)O)sc2C)cc1 [compound 33, 33]	6.7
Nc1cc(F)ccc1-c1csc(NC(=O)c2ccccc2-c2ccccc2C(=O)O)n1 [compound 17]	2.7

Further lines, results first:

IC50 [µM]	SMILES
4.8	CC(C)Cc1ccc(-c2csc(NC(=O)c3ccccc3-c3ccccc3C(=O)O)n2)cc1 [PJ14]
2	NCCc1ccc(-c2csc(NC(=O)c3ccccc3-c3ccccc3C(=O)O)n2)cc1 [PJ13]

Same assay, conditions: read-out: FP IC50; inhibitor

IC50 [µM]	SMILES
12.2	O=C(O)c1ccccc1-c1cccnc1C(=O)Nc1nc(-c2ccc(Cl)cc2Cl)cs1 [compound 18]
4.1	O=C(O)c1ccccc1-c1ccccc1C(=O)Nc1cccc(-c2nc3ccccc3[nH]2)c1 [PJ8]

Target: T1, OASS (O-acetylserine sulfhydrylase)
Assay: fluorescence polarization competition
Assay type: binding
Settings: not given

IC50 [µM]	SMILES
5.4	CC(C)Cc1ccc(-c2csc(NC(=O)c3ccccc3-c3ccccc3C(=O)O)n2)cc1 [PJ14]
4.7	O=C(O)c1ccccc1-c1ccccc1C(=O)Nc1nc(-c2ccc(Cl)cc2Cl)cs1 [PJ15]
50	COc1ccc(-c2cc(NC(=O)c3ccccc3-c3ccccc3C(=O)O)n(CCO)n2)cc1 [PJ34]
